Assay results as given in patent US11214803B2, “Modulators of YAP1 expression” (Ionis Pharmaceuticals, Inc., priority 2019, dated 2022).
Strand notation (5' to 3'): a small letter for the sugar, then the base; units joined by * are phosphorothioate-linked, units joined directly phosphodiester-linked; [ ] holds rarer units or linkages, { } end groups; capitals alone tell only the bases. e = 2'-O-(2-methoxyethyl) (MOE); k = constrained ethyl (cEt); [5mC] = 5-methylcytosine; d = 2'-deoxy (DNA); m = 2'-O-methyl

Tested on: Yap1 mRNA
Experiment: Dose-dependent inhibition of human Yap1 in SNU-449 cells (Example 9, RTS36584)
Format: cell-based
Details: free uptake; for % UTC (Yap1 mRNA): approximately 48 hours; for IC50: linear regression on a log/linear plot
Method: Modified oligonucleotides described in the studies above were tested at various doses in SNU-449 cells. Cultured SNU-449 cells at a density of 10,000 cells per well were treated using free uptake with modified oligonucleotides diluted to concentrations described in the tables below. After approximately 48 hours, Yap1 mRNA levels were measured as previously described using the Human Yap1 primer-probe set RTS36584. Yap1 mRNA levels were normalized to total RNA content, as measured by RIBOGREEN®. Results are presented in the tables below as percent control of the amount of Yap1 mRNA relative to untreated control cells (% UTC). IC50s were calculated using a linear regression on a log/linear plot of the data in excel.

| Substance | % UTC (Yap1 mRNA) (31.3 nM) | % UTC (Yap1 mRNA) (125.0 nM) | % UTC (Yap1 mRNA) (500.0 nM) | % UTC (Yap1 mRNA) (2000.00 nM) | IC50 |
| --- | --- | --- | --- | --- | --- |
| 1095481 (kT*kG*dA*dG*dG*dT*dA*dT*dA*dA*d[5mC]*dT*kG*eG*kG*e[5mC]) [compound 1095481] | 73 % UTC | 47 % UTC | 16 % UTC | 8 % UTC | 100 nM |
| 1197271 (kT*kT*kT*dA*mA*dA*dG*dT*dG*dT*dA*dT*dG*kT*k[5mC]*kA; antisense) [compound 1197271] | 70 % UTC | 47 % UTC | 19 % UTC | 8 % UTC | 100 nM |
| 1198638 (kA*kG*dA*dG*dT*dA*dT*dG*dT*dG*dG*d[5mC]*kA*eA*kT*eA; antisense) [compound 1198638] | 70 % UTC | 42 % UTC | 13 % UTC | 4 % UTC | 100 nM |
| 1198354 (kA*kA*kG*dT*dG*dT*dA*dT*dG*dT*d[5mC]*dA*kG*eA*kA*eG) [compound 1198354] | 66 % UTC | 24 % UTC | 5 % UTC | 1 % UTC | 50 nM |
| 1198211 (kA*kT*dT*dA*dG*dA*dG*dT*dA*dT*dG*eT*eG*eG*k[5mC]*kA) [compound 1198211] | 72 % UTC | 37 % UTC | 23 % UTC | 12 % UTC | 100 nM |
| 1198457 (kA*kT*dT*dG*dT*d[5mC]*dT*d[5mC]*dA*dT*dG*e[5mC]*k[5mC]*eT*kT*eA; antisense) [compound 1198457] | 82 % UTC | 56 % UTC | 31 % UTC | 12 % UTC | 200 nM |
| 1198553 (kT*kA*kG*dA*dG*dT*dA*dT*dG*dT*dG*dG*k[5mC]*kA*kA*eT; antisense) [compound 1198553] | 65 % UTC | 38 % UTC | 19 % UTC | 6 % UTC | 100 nM |
| 1198616 (kT*kT*kT*dA*dA*dA*dG*dT*dG*dT*dA*dT*kG*kT*k[5mC]*eA; antisense) [compound 1198616] | 78 % UTC | 46 % UTC | 18 % UTC | 5 % UTC | 100 nM |
| 1200820 (kG*kG*kA*dA*dG*mA*dT*d[5mC]*dT*dG*dA*dA*dA*k[5mC]*kT*k[5mC]; antisense) [compound 1200820] | 104 % UTC | 69 % UTC | 36 % UTC | 17 % UTC | 300 nM |
| 1198546 (kG*kA*kA*dA*dT*dT*dG*dT*d[5mC]*dT*d[5mC]*dA*kT*kG*k[5mC]*e[5mC]) [compound 1198546] | 70 % UTC | 42 % UTC | 18 % UTC | 6 % UTC | 100 nM |
| 1198596 (k[5mC]*kT*k[5mC]*dT*dT*dA*dT*dA*dT*dG*dG*dT*kT*kT*kT*eG; antisense) [compound 1198596] | 73 % UTC | 40 % UTC | 14 % UTC | 4 % UTC | 100 nM |
| 1198267 (kA*kG*dT*dG*dT*dA*dT*dG*dT*d[5mC]*dA*eG*eA*eA*kG*kA; antisense) [compound 1198267] | 78 % UTC | 44 % UTC | 15 % UTC | 3 % UTC | 100 nM |
| 1198286 (kA*kA*kT*dT*dG*dT*d[5mC]*dT*d[5mC]*dA*dT*dG*k[5mC]*e[5mC]*kT*eT; antisense) [compound 1198286] | 64 % UTC | 45 % UTC | 22 % UTC | 8 % UTC | 100 nM |
| 1198918 (kG*k[5mC]*dA*d[5mC]*dT*dT*dT*dT*dA*d[5mC]*dA*kT*dT*kA*dG*kG) [compound 1198918] | 60 % UTC | 33 % UTC | 13 % UTC | 9 % UTC | 50 nM |
| 1198268 (kA*kA*dG*dT*dG*dT*dA*dT*dG*dT*d[5mC]*eA*eG*eA*kA*kG; antisense) [compound 1198268] | 83 % UTC | 52 % UTC | 17 % UTC | 5 % UTC | 100 nM |
| 1198746 (kG*e[5mC]*kA*d[5mC]*dT*dT*dT*dT*dA*d[5mC]*dA*dT*eT*eA*kG*kG) [compound 1198746] | 49 % UTC | 24 % UTC | 9 % UTC | 3 % UTC | < 30 nM |

| Substance | % UTC (Yap1 mRNA) (31.3 nM) | % UTC (Yap1 mRNA) (125.0 nM) | % UTC (Yap1 mRNA) (500.0 nM) | % UTC (Yap1 mRNA) (2000.00 nM) | IC50 |
| --- | --- | --- | --- | --- | --- |
| 1200806 (kT*kG*kA*dG*dG*mU*dA*dT*dA*dA*d[5mC]*dT*dG*kG*kG*k[5mC]; antisense) [compound 1200806] | 91 % UTC | 54 % UTC | 34 % UTC | 18 % UTC | 200 nM |
| 1097247 (kT*kA*kA*dA*dG*dT*dG*dT*dA*dT*dG*dT*d[5mC]*kA*kG*kA; antisense) [compound 1097247] | 58 % UTC | 28 % UTC | 8 % UTC | 2 % UTC | 40 nM |
| 1198294 (kA*kG*kA*dG*dT*dA*dT*dG*dT*dG*dG*d[5mC]*kA*eA*kT*eA; antisense) [compound 1198294] | 59 % UTC | 33 % UTC | 14 % UTC | 5 % UTC | 50 nM |
| 1197223 (kT*kA*kA*dG*dT*dA*dA*dG*dG*dT*dT*dT*d[5mC]*k[5mC]*k[5mC]*kA; antisense) [compound 1197223] | 88 % UTC | 55 % UTC | 25 % UTC | 8 % UTC | 200 nM |
| 1198203 (kG*kG*dA*dA*dA*dT*dT*dG*dT*d[5mC]*dT*e[5mC]*eA*eT*kG*k[5mC]) [compound 1198203] | 71 % UTC | 51 % UTC | 25 % UTC | 11 % UTC | 100 nM |
| 1198614 (kT*kA*kA*dA*dG*dT*dG*dT*dA*dT*dG*dT*k[5mC]*kA*kG*eA; antisense) [compound 1198614] | 69 % UTC | 26 % UTC | 3 % UTC | 1 % UTC | 100 nM |
| 1198297 (kA*kT*kT*dA*dG*dA*dG*dT*dA*dT*dG*dT*kG*eG*k[5mC]*eA) [compound 1198297] | 67 % UTC | 42 % UTC | 16 % UTC | 7 % UTC | 100 nM |
| 1198384 (kT*dA*dT*dT*dA*dG*dA*dG*dT*dA*dT*kG*eT*kG*eG*k[5mC]; antisense) [compound 1198384] | 76 % UTC | 50 % UTC | 24 % UTC | 17 % UTC | 100 nM |
| 1198422 (k[5mC]*dT*dT*dA*dT*dA*dT*dG*dG*dT*dT*kT*eT*kG*eT*kG) [compound 1198422] | 88 % UTC | 60 % UTC | 30 % UTC | 19 % UTC | 200 nM |
| 1198958 (kT*kG*dT*dA*dT*dG*dT*d[5mC]*dA*dG*dA*kA*dG*kA*dG*kT; antisense) [compound 1198958] | 68 % UTC | 39 % UTC | 16 % UTC | 5 % UTC | 100 nM |
| 1198900 (kA*kG*dA*dG*dT*dA*dT*dG*dT*dG*dG*k[5mC]*dA*kA*dT*kA; antisense) [compound 1198900] | 69 % UTC | 36 % UTC | 18 % UTC | 7 % UTC | 100 nM |
| 1198243 (kG*kA*dT*dT*dT*dA*dG*dG*dA*dT*dG*e[5mC]*eA*eT*kG*kG; antisense) [compound 1198243] | 55 % UTC | 28 % UTC | 10 % UTC | 5 % UTC | < 30 nM |
| 1198380 (kA*dG*dA*dG*dT*dA*dT*dG*dT*dG*dG*k[5mC]*eA*kA*eT*kA; antisense) [compound 1198380] | 72 % UTC | 55 % UTC | 27 % UTC | 11 % UTC | 100 nM |
| 1198466 (kA*kG*dA*dG*dT*dA*dT*dG*dT*dG*dG*e[5mC]*kA*eA*kT*eA; antisense) [compound 1198466] | 68 % UTC | 44 % UTC | 18 % UTC | 6 % UTC | 100 nM |
| 1198697 (kA*kG*dT*dG*dT*dA*dT*dG*dT*d[5mC]*dA*dG*kA*eA*kG*eA) [compound 1198697] | 60 % UTC | 29 % UTC | 7 % UTC | 1 % UTC | 40 nM |
